Results published in patent publication US9776999B2, “Antiparisitic dihydroazole compounds and compositions comprising same” (MERIAL, INC., priority 2009, dated 2017).

Test system: Ctenocephalides felis
Test: Contact activity of compounds against fleas (Method B)
Conditions: adult fleas, treated filter paper; 72 hours assessment; test concentration of 100 ppm or less; versus untreated controls
Method: METHOD B: Screening Method to test Contact Activity of Compounds Against Fleas
A solution of the test compound was dispensed, using a pipette, onto filter paper placed into a glass vial. The filter paper was allowed to dry before infesting each vial with 10 adult Ctenocephalides felis. The treated Ctenocephalides felis were held in a controlled environment (24° C., 90-95% relative humidity) and assessment was performed at 24, 48 and 72 hours after application in comparison with untreated controls.

How did the “control (Ctenocephalides felis, contact)” value turn out when `CSCCNC(=O)c1ccc(C2=NOC(c3cc(C(F)(F)F)cc(C(F)(F)F)c3)(C(F)(F)F)C2)n2cccc12` (stereo not shown) [Compound 1.009, 5-[5-(3,5-Bistrifluoromethylphenyl)-5-trifluoromethyl-4,5-dihydroisoxazol-3-yl]-indolizine-8-carboxylic acid (2-methylthioethyl)-amide] was run?
The value was “at least 80%”.
